According to PubChem BioAssay (NCI):
“And” between values parts separate entries of the source, which are not always exact repeats. Equal entries are not always repeated.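 Compound exposure: 48 hours, 5 concentrations, 96-well plates. GI50 is the concentration that inhibits growth by half. At the TGI there is no net growth.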 Where a SMILES comes first, the peptide text is derived from it. Side-chain parts run from the residue outwards. [ ]: non-standard residue; d: D form. The star is where a group is joined. X28 = COC1=CC(=O)N(C(=O)[C@@H](O*)C(C)C)[C@H]1Cc1ccccc1; NMeL = CN[C@@H](CC(C)C)C(=O)O; Cbz = O=C(OCc1ccccc1)*; Boc = CC(C)(C)OC(=O)*

What was measured:
Test in all cases: NCI-60 cell line screen, 48 h
[1] = test system: MALME-3M melanoma
[2] = test system: U251 CNS
[3] = test system: OVCAR-3 ovarian
[4] = test system: SF-539 CNS
[5] = test system: COLO 205 colon
[6] = test system: HOP-92 NSCLC
[7] = test system: MCF7 breast
[8] = test system: BT-549 breast
[9] = test system: UACC-62 melanoma
[10] = test system: SK-MEL-5 melanoma
[11] = test system: MOLT-4 leukemia

| Structure (SMILES) | TGI [1] | TGI [2] | TGI [3] | TGI [4] | TGI [5] | TGI [6] | TGI [7] | TGI [8] | TGI [9] | TGI [10] | TGI [11] | GI50 [5] | GI50 [6] | GI50 [11] |
| --- | --- | --- | --- | --- | --- | --- | --- | --- | --- | --- | --- | --- | --- | --- |
| COC1=CC(=O)N(C(=O)[C@@H](OC(=O)[C@@H]2CCCN2C(=O)[C@@H]2CCCN2C(=O)[C@H](CC(C)C)N(C)C(=O)[C@@H](NC(=O)[C@@H](NC(=O)OCc2ccccc2)C(C)C)C(C)C)C(C)C)[C@H]1Cc1ccccc1 (Cbz-VV[NMeL]PP-X28) | > 100 µM | > 100 µM | > 100 µM | 43.8 µM | > 100 µM | > 100 µM | > 100 µM | > 100 µM | > 100 µM | – | – | – | – | – |
| CC(C)CC(NC(=O)OCc1ccccc1)C(=O)NCCCCC(NC(=O)C(CCCCNC(=O)C(CC(C)C)NC(=O)OCc1ccccc1)NC(=O)C(CCCCNC(=O)C(CC(C)C)NC(=O)OCc1ccccc1)NC(=O)C(CCCCNC(=O)C(CC(C)C)NC(=O)OCc1ccccc1)NC(=O)OC(C)(C)C)C(=O)O (stereo unspecified) (Boc-K([Leu-Cbz])K([Leu-Cbz])K([Leu-Cbz])K([Leu-Cbz])-OH; configuration not given here) | > 25 µM | > 25 µM | > 25 µM | – | – | – | > 25 µM | > 25 µM | > 25 µM | > 25 µM | > 25 µM | – | – | – |
| COc1ccc(-c2c(C(C)=O)c(-c3ccccc3)n(C3OC(COC(C)=O)C(OC(C)=O)C(OC(C)=O)C3OC(C)=O)c(=S)c2C#N)cc1O (stereo unspecified) | 40.5 µM and 55.9 µM | > 100 µM | 41 µM and > 100 µM | – | 57.5 µM and > 100 µM | 82.5 µM and > 100 µM | > 100 µM | 72.2 µM | 53.6 µM and > 100 µM | > 100 µM | > 100 µM | 21 µM and 47.7 µM | 43.9 µM and 17.3 µM | 18.2 µM and 52.8 µM |
| CCOC(=O)C1CCCC1S(=O)(=O)c1ccc(C)cc1 (stereo unspecified) | > 100 µM | > 100 µM | > 100 µM | – | > 100 µM | > 100 µM | > 100 µM | > 100 µM | > 100 µM | > 100 µM | > 100 µM | – | – | – |
| O=C(O)C1Cc2ccccc2OC1=O (stereo unspecified) | > 100 µM | > 100 µM | > 100 µM | > 100 µM | > 100 µM | – | > 100 µM | > 100 µM | > 100 µM | > 100 µM | > 100 µM | – | – | – |
| CNC(=O)C(NC(=O)[C@H](CC(C)C)NC(=O)[C@@H](S)CCN1C(=O)N(C)C(C)(C)C1=O)C(C)(C)C (stereo partly specified) | > 100 µM | – | – | – | – | > 100 µM | > 100 µM | > 100 µM | > 100 µM | > 100 µM | > 100 µM | – | – | – |
| COc1cc(OC)c(NC2=NCCO2)cc1Cl | > 100 µM | > 100 µM | > 100 µM | 53.3 µM | 38.2 µM | – | > 100 µM | – | > 100 µM | 47.3 µM | > 100 µM | – | – | – |
| Cc1cc(O)c(/C=N/C(=O)NN)c(=O)o1 | – | > 100 µM | > 100 µM | > 100 µM | > 100 µM | > 100 µM | > 100 µM | > 100 µM | > 100 µM | > 100 µM | > 100 µM | – | – | – |
| CC(C)=CCC[C@@H](C)C1=C(O)C(Nc2ccccc2F)=C(C)C(=O)C1=O | 41.1 µM | > 100 µM | > 30.4 µM | – | > 68.9 µM | > 65.3 µM | > 90 µM | > 79.7 µM | > 79.3 µM | 42.3 µM | > 100 µM | – | – | – |
| Cc1ccc(C(=O)/C=C/N2CCN(c3cccc(C(F)(F)F)c3)CC2)cc1 | 38.1 µM | 31.4 µM | 28.5 µM | 31.5 µM | 72 µM | > 100 µM | 34 µM | – | 34.8 µM | 29.2 µM | 48.2 µM | – | – | – |
